Test results from patent publication US7902237B2, “Heterocyclic compounds as pharmaceutical agents” (Exelixis, Inc., priority 2004, dated 2011).
Where two headings read alike, the source gives them in different places.

How the values were obtained:
[1] = target: T1, full length human farnesoid X receptor (Homo sapiens, UniProt Q96RI1); assay: farnesoid X receptor/ECREx7 co-transfection assay; assay type: cell-based; details: for EC50: CV-1 cells; for Emax: agonist efficacy relative to chenodeoxycholic acid (CDCA) maximum response
T1 construct: CMX-farnesoid X receptor (full length human farnesoid X receptor); expressed in transfected cells; host or cells: CV-1 African Green Monkey Kidney cells
T1 sequence (Q96RI1 1-472 isoform Q96RI1-2): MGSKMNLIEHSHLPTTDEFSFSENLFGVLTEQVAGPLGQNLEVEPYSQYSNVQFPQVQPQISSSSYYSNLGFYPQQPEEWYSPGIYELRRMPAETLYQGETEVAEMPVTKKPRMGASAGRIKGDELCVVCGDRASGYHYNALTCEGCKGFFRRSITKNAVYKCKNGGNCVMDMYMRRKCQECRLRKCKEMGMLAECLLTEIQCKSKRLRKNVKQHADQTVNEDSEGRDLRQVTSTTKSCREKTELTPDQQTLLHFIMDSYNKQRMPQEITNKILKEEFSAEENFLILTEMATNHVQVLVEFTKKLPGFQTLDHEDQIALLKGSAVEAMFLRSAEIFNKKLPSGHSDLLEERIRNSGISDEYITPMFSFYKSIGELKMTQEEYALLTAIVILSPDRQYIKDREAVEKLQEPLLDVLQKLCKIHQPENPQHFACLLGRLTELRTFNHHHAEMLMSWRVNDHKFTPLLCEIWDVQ
T1 sequence (P19793 1-462 partner): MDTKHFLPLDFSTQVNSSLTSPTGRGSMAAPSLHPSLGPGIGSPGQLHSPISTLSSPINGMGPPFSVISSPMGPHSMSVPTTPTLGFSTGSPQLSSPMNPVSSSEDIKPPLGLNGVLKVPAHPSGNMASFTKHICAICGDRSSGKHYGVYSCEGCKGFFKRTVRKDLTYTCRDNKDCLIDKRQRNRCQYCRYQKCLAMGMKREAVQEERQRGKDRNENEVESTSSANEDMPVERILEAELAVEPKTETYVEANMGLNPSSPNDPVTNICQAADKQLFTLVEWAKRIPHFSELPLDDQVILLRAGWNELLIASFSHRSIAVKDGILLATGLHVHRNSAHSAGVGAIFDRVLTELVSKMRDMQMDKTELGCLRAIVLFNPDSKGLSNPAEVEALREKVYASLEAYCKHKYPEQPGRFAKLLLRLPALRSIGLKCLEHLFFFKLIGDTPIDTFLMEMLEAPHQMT
Procedure: (§1) The basic co-transfection protocol for measuring the farnesoid X receptor activity is as follows. CV-1 African Green Monkey Kidney cells were plated 24 hours before transfection to achieve approximately 70-80 percent confluency. Cells were transfected with the following expression vectors, CMX-farnesoid X receptor (full length human farnesoid X receptor), CMX-7RXRα (full length human RXR), Luc12 (ECREx7-Tk-Luciferase) luciferase reporter gene construct. (See WO 00/76523, Venkateswaran et al., (2000) J. Biol. Chem. 275 14700-14707). A CMX-β-Galactosidase expression vector was used as a transfection control. The transfection reagent used was DOTAP (Boehringer Mannheim). Cells were incubated with the DOTAP/DNA mixture for 5 hours after which the cells were harvested and plated onto either 96 well or 384 well plates containing the appropriate concentration of test compound. The assay was allowed to continue for an additional 18-20 hours, after which the cells were lysed, with lysis buffer (1% triton X 100, 10% glycerol, 5 mM Dithiothreitol, 1 mM EGTA, 25 mM Tricine, pH 7.8) and the luciferase activity measured in the presence of Luciferase assay buffer (0.73 mM ATP, 22.3 mM Tricine, 0.11 mM EGTA, 0.55 mM Luciferin, 0.15 mM Coenzyme A, 0.5 mM HEPES, 10 mM Magnesium sulphate) on a standard luminomter plate reader (PE Biosystems, NorthStar Reader), using recommended operating instructions and conditions
(§2) Both the farnesoid X receptor/ECREx7 co-transfection assay (Example 9) and the TR-FRET assay (Example 8) can be used to establish the EC50/IC50 values for potency and percent activity or inhibition for efficacy. Efficacy defines the activity of a compound relative to a high control (chenodeoxycholic acid, CDCA) or a low control (DMSO/vehicle). The dose response curves are generated from an 8 point curve with concentrations differing by ½ LOG units. Each point represents the average of 4 wells of data from a 384 well plate. The curve for the data is generated by using the equation: Y=Bottom+(Top−Bottom)/(1+10^((Log EC50−X)*HillSlope))
The EC50/IC50 is therefore defined as the concentration at which an agonist or antagonist elicits a response that is half way between the Top (maximum) and Bottom (baseline) values. The EC50/IC50 values represented are the averages of at least 3 independent experiments. The determination of the relative efficacy or % control for an agonist is by comparison to the maximum response achieved by chenodeoxycholic acid that is measured individually in each dose response experiment. […]

farnesoid X receptor = target: T2, farnesoid X receptor (Homo sapiens, UniProt Q96RI1); assay: one or more of the in vitro assays described herein (TR-FRET assay and/or co-transfection assay); details: for Emax: agonist efficacy relative to CDCA, read-out: efficacy (first value, goes with EC50); for IC50: antagonist mode against CDCA, read-out: IC50 (apparent partial agonist activity); for EC50: read-out: EC50 (apparent partial agonist activity)
T2 sequence (Q96RI1 258-485): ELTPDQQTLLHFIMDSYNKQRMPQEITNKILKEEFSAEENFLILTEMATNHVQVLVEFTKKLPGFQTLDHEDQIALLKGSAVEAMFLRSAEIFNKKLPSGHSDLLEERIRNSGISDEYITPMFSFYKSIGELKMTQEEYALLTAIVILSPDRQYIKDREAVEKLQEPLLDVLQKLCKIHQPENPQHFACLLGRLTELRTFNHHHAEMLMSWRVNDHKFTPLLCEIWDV
Procedure: The TR-FRET assay was performed by incubating 8 nM of GST-farnesoid X receptor-LBD (comprising […] fused in frame to the farnesoid X receptor ligand binding domain, (amino acids 244-471 of the human farnesoid X receptor)), 8 nM of Europium-labeled anti-GST antibody (Wallac/PE Life Sciences Cat#AD0064), 16 nM biotin-SRC-1 peptide [5′-biotin-[…]-CONH2], 20 nM APC-SA [allophycocyanin conjugated streptavidin] (Wallac/PE Life Sciences, Cat# AD0059A) in FRET assay buffer (20 mM KH2PO4/K2HPO4 (pH 7.3), 150 mM NaCl, 2 mM CHAPS, 2 mM EDTA, 1 mM DTT) in the presence of the test compound(s) for 2-4 hours at room temperature in a 384 well assay plate. Data was collected using an LJL Analyst using the standard operating instructions and conditions with readings at emission wavelengths of 615 nm and 665 nm after a delay of 65 μs and an excitation wavelength of 330 nm.
as §1, §2
The EC50/IC50 is therefore defined as the concentration at which an agonist or antagonist elicits a response that is half way between the Top (maximum) and Bottom (baseline) values. The EC50/IC50 values represented are the averages of at least 3 independent experiments. The determination of the relative efficacy or % control for an agonist is by comparison to the maximum response achieved by chenodeoxycholic acid that is measured individually in each dose response experiment.
For the antagonist assay, CDCA is added to each well of a 384 well plate to elicit a response. The % inhibition for each antagonist is therefore a measurement of the inhibition of the activity of CDCA. In this example, 100% inhibition would indicate that the activity of CDCA has been reduced to baseline levels, defined as the activity of the assay in the presence of DMSO only.

[2] = read-out: agonist activity EC50

Row | SMILES | EC50 [1, 2] [nM] | Emax [1] [%] | Emax (farnesoid X receptor) [%] | IC50 (farnesoid X receptor) [nM] | EC50 (farnesoid X receptor) [nM] | EC50 ([1]; read-out: agonist activity) [nM]
1 | CCNc1ccc(C(C)=O)cc1/N=C1\S/C(=C\N(C)c2ccccc2)C(=O)N1Cc1ccccc1 [No. 2, (2Z,5Z)-2-{[5-acetyl-2-(ethylamino)phenyl]imino}-5-{[methyl(phenyl)amino]methylidene)-3-(phenylmethyl)-1,3-thiazolidin-4-one] | ≤ 1000 | 50 to 100 | – | – | – | –
2 | CCNc1ccc(C(C)=O)cc1/N=C1\S/C(=C\N(C)Cc2ccccc2)C(=O)N1Cc1ccccc1 [No. 4, (2Z,5Z)-2-{[5-acetyl-2-(ethylamino)phenyl]imino}-5-{[methyl(phenylmethyl)amino]methylidene}-3-(phenylmethyl)-1,3-thiazolidin-4-one] | ≤ 1000 | 50 to 100 | 40 to 50 | 300 to 500 | ~1000 | –
3 | CCNc1ccc(C#N)cc1/N=C1\S/C(=C\N2CCc3ccccc32)C(=O)N1Cc1ccccc1 [No. 5, 3-{[(2Z,5Z)-5-(2,3-dihydro-1H-indol-1-ylmethylidene)-4-oxo-3-(phenylmethyl)-1,3-thiazolidin-2-ylidene]amino}-4-(ethylamino)benzonitrile] | – | ≥ 100 | – | – | – | < 200
4 | CCNc1ccc(C(C)=O)cc1/N=C1\S/C(=C\N2CCc3ccccc32)C(=O)N1Cc1ccccc1 [No. 6, (2Z,5Z)-2-{[5-acetyl-2-(ethylamino)phenyl]imino}-5-(2,3-dihydro-1H-indol-1-ylmethylidene)-3-(phenylmethyl)-1,3-thiazolidin-4-one] | – | > 100 | – | – | – | < 100
5 | CC(=O)c1cccc(/N=C2\S/C(=C\N3CCc4ccccc43)C(=O)N2Cc2ccco2)c1 [No. 7, (2Z,5Z)-2-[(3-acetylphenyl)imino]-5-(2,3-dihydro-1H-indol-1-ylmethylidene)-3-(furan-2-ylmethyl)-1,3-thiazolidin-4-one] | ≤ 1000 | 50 to 100 | – | – | – | –
6 | CC(=O)Nc1ccc(/N=C2\S/C(=C\N3CCc4ccccc43)C(=O)N2Cc2ccco2)cc1 [No. 8, N-(4-{[(2Z,5Z)-5-(2,3-dihydro-1H-indol-1-ylmethylidene)-3-(furan-2-ylmethyl)-4-oxo-1,3-thiazolidin-2-ylidene]amino}phenyl)acetamide] | ≤ 1000 | 50 to 100 | – | – | – | –
7 | CCNc1ccc(C#N)cc1/N=C1\S/C(=C\N(C)c2ccc(OC)cc2)C(=O)N1Cc1ccccc1 [No. 12, 4-(ethylamino)-3-{[(2Z,5Z)-5-({methyl[4-(methyloxy)phenyl]amino}methylidene)-4-oxo-3-(phenylmethyl)-1,3-thiazolidin-2-ylidene]amino} benzonitrile] | – | – | 40 to 50 | 300 to 500 | ~1000 | –
8 | CCNc1ccc(C(C)=O)cc1/N=C1\S/C(=C\N(C)c2cccc(OC)c2)C(=O)N1Cc1ccccc1 [No. 15, (2Z,5Z)-2-{[5-acetyl-2-(ethylamino)phenyl]imino}-5-({methyl[3-(methyloxy)phenyl]amino}methylidene)-3-(phenylmethyl)-1,3-thiazolidin-4-one] | – | ≥ 100 | – | – | – | < 200
9 | CCNc1ccc(C(C)=O)cc1/N=C1\S/C(=C\N(C)CCc2ccccc2)C(=O)N1Cc1ccccc1 [No. 19, (2Z,5Z)-2-{[5-acetyl-2-(ethylamino)phenyl]imino}-5-{[methyl(2-phenylethyl)amino]methylidene}-3-(phenylmethyl)-1,3-thiazolidin-4-one] | ≤ 1000 | 50 to 100 | – | – | – | –
10 | CCNc1ccc(C(C)=O)cc1/N=C1\S/C(=C\c2ccccc2)C(=O)N1Cc1ccccc1 [No. 23] | ≤ 1000 | 50 to 100 | – | – | – | –
11 | CCNc1ccc(C(C)=O)cc1/N=C1\S/C(=C\c2ccco2)C(=O)N1Cc1ccccc1 [No. 24, (2Z,5Z)-2-{[5-acetyl-2-(ethylamino)phenyl]imino}-5-(furan-2-ylmethylidene)-3-(phenylmethyl)-1,3-thiazolidin-4-one] | ≤ 1000 | 50 to 100 | – | – | – | –
